The source of these data is US11040959B2, “Diprovocims: a new and potent class of TLR agonists” (The Scripps Research Institute, priority 2016, dated 2021).

Where two headings read alike, the source gives them in different places. Where only a bound is given, the exact number is not on record here.

One may read the EC50 as the concentration giving half of the maximal effect.

What all share (type): cell-based
Test [1] relates to differentiated human THP-1 cells. Briefly: stimulated release of TNF-α from differentiated human THP-1 cells (ELISA, dose-response). In outline:
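Human THP-1 cells were PMA-differentiated toward macrophages, and stimulated TNF-α release was measured by ELISA. EC50 values were taken from dose-response curves.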
On the technique in general: ELISA stands for enzyme-linked immunosorbent assay.

The next test relates to mouse macrophages. Briefly: stimulated release of TNF-α from mouse macrophages. The following applies: Macrophage. In outline:
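EC50 derived from dose-response curves for stimulated TNF-α release from mouse macrophages.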

Test [2] has as its system TNF-α release stimulated by diprovocim-1 (3). Briefly: antagonist test: inhibition of the activity of diprovocim-1 (3) on co-administration. The following applies: co-administered at 5 μM.
[3] abbreviates: Homo sapiens, THP-1, table of functionalized derivatives 147-151, human THP-1 cells, read-out: EC50 (nM) (THP-1).
Where [4] appears, read: table of functionalized derivatives 147-151, mouse macrophages, read-out: EC50 (nM) (mouse).

As to `O=C(NCCc1ccccc1)[C@@H]1CN(C(=O)c2ccc(C(=O)N3C[C@@H](C(=O)NCCc4ccccc4)[C@H](C(=O)NCCc4ccccc4)C3)cc2)C[C@H]1C(=O)NCCc1ccccc1` [Compound 8, trans,trans-1,1′-Terephthaloylbis-(N^3, N^4-diphenethylpyrrolidine-3,4-dicarboxamide)], the EC50 is greater than 5000 nM in test [1] (Homo sapiens, THP-1, running text, read-out: EC50, stimulated release of TNF-α from differentiated human THP-1 cells) and greater than 5000 nM with mouse macrophages (Mus musculus, read-out: EC50, stimulated release of TNF-α from mouse macrophages). The “activity in stimulating TNF-α release from human THP-1 cells (in words)” value in test [1] (tested up to 5 μM where stated) was “inactive”. For the same molecule, the “antagonist activity, inhibiting the activity of diprovocim-1 (3)” value in test [2] was “incapable of acting as an antagonist”.

For `CC(C)(C)OC(=O)CCOCCOCCOCCNC(=O)COc1cc(C(=O)N2C[C@@H](C(=O)N[C@H]3C[C@@H]3c3ccccc3)[C@H](C(=O)N[C@H]3C[C@@H]3c3ccccc3)C2)ccc1C(=O)N1C[C@@H](C(=O)N[C@H]2C[C@@H]2c2ccccc2)[C@H](C(=O)N[C@H]2C[C@@H]2c2ccccc2)C1` [Compound 149, tert-Butyl 1-(2,5-Bis((3S,4S)-3,4-bis(((1S,2R)-2-phenylcyclopropyl)carbamoyl)pyrrolidine-1-carbonyl)phenoxy)-2-oxo-6,9,12-trioxa-3-azapentadecan-15-oate], the EC50 in test [1] (setting [3]) stood at 20 nM; in the test on mouse macrophages (setting [4]), 150 nM.

As for `CC(C)(C)OC(=O)COCCOCCOCC(=O)Nc1cc(C(=O)N2C[C@@H](C(=O)N[C@H]3C[C@@H]3c3ccccc3)[C@H](C(=O)N[C@H]3C[C@@H]3c3ccccc3)C2)ccc1C(=O)N1C[C@@H](C(=O)N[C@H]2C[C@@H]2c2ccccc2)[C@H](C(=O)N[C@H]2C[C@@H]2c2ccccc2)C1` [Compound 150, tert-Butyl 2-(2-(2-(2-((2,5-Bis((3S,4S)-3,4-bis(((1S,2R)-2-phenylcyclopropyl)carbamoyl)-pyrrolidine-1-carbonyl)phenyl)amino)-2-oxoethoxy)ethoxy)ethoxy)acetate], the values for the EC50 (in test [1] (setting [3]); in the test with mouse macrophages (setting [4])) were 15 nM and 130 nM, respectively.

As to `O=C(COc1cc(C(=O)N2C[C@@H](C(=O)N[C@H]3C[C@@H]3c3ccccc3)[C@H](C(=O)N[C@H]3C[C@@H]3c3ccccc3)C2)ccc1C(=O)N1C[C@@H](C(=O)N[C@H]2C[C@@H]2c2ccccc2)[C@H](C(=O)N[C@H]2C[C@@H]2c2ccccc2)C1)NCC(=O)N[C@@H](CO)C(=O)O` [Compound 151, (2-(2,5-Bis((3S,4S)-3,4-bis(((1S,2R)-2-phenylcyclopropyl)carbamoyl)pyrrolidine-1-carbonyl)phenoxy)acetyl)glycyl-L-serine], the EC50 in test [1] (table of functionalized derivatives 147-151, human THP-1 cells, read-out: EC50 (nM) (THP-1)) turned out to be 0.24 nM; in the test with mouse macrophages (setting [4]), 270 nM.
